In patent US20220281794A1, “METHOD OF THE ISOLATING CHLOROSESAMONE OR CHLOROSESAMONE-CONTAINING FRACTION FROM ROOTS OF GENUS SESAMUM, AND APPLICATION OF THE FRACTION THEREOF” (BRILLIANT BIOMEDICAL CORP., priority 2019, published 2022):

Columns and labels:
Format in all cases: cell-based
[1] = test system: HepG2 human liver cancer cell; assay: cell viability assay (MTT assay), HepG2; details: HepG2 cells, 24 hours treatment stated for D2 fraction
Method: (§1) In the first embodiment, MDA-MB-231, a human breast cancer cell and 4T1, a mouse breast cancer cell, Huh-7 and HepG2, a human liver cancer cell and BNL-1-MEA, a mouse liver cancer cell, HL60, a human blood cancer cell and WEHI-3, a mouse blood cancer cell , and
(§2) A549, a human lung cancer cell and LLC1, a mouse lung cancer cell are used for the experiments. A 96-well plate is used for cell culture. In the test, cells are treated with 0, 25, 50, 100, 200, 400 μg/mL of D2 fraction for 24 hours, and then subjected to cell viability assay (or MTT assay). In cell viability assay, cells are washed with 1X PBS once and treated with 0.5 mg/mL of MTT (3-(4,5-Dimethylthiazol-2-yl)-2,5-diphenyltetrazolium bromide). After incubation at 37 degrees Centigrade for 1-2 hours MTT is removed and cells are washed with 1X PBS once, followed by dimethyl sulfoxide (DMSO) to dissolve […]. Finally optical density (OD) of 570 nm is detected and medium only is used as a 100% cell viability.

[2] = test system: 4T1 mouse breast cancer cell; assay: cell viability assay (MTT assay), 4T1; details: 4T1 cells, 24 hours treatment stated for D2 fraction
Method: as §1, §2

[3] = test system: 4T1 mouse breast cancer cell and HepG2 human liver cancer cell; assay: cell viability assay, summary over 4T1 and HepG2; details: range over 4T1 and HepG2 cells
Method: as §1, §2

Question: Which “50% inhibition concentration in HepG2 human liver cancer cell” value [1] does the source give for `CC(C)=CCC1=C(Cl)C(=O)c2c(O)ccc(O)c2C1=O` [chlorosesamone] here?
Answer: Its value is 0.8 µg/mL.

Question: What about the “50% inhibition concentration in 4T1 mouse breast cancer cell” value [2] of the same compound?
Answer: Its value is 1.3 µg/mL.

Question: And the “50% inhibition concentration of chlorosesamone (range)” value [3]?
Answer: Its value is 0.8 to 1.3 µg/mL.
